# Source: patent publication US20100196311A1, “METHODS AND COMPOSITIONS CONTAINING mTOR INHIBITORS FOR ENHANCING IMMUNE RESPONSES” (priority 2009, published 2010)
# Legend:
# OT-I cells = experiment: Type I effector functions (IFN-γ, CTL activity, Granzyme B) of OT-I cells, primary and secondary phase; format: cell-based, mouse
# Procedure: FIG. 3. Sustained mTOR Activity Is Essential for Heritable Type I Effector Differentiation of CD8^+ T Cells. […] (D and E) OT-I cells were stimulated with Ag+B7.1 (±) IL-12 and rapamycin was added 12 hr after stimulation to evaluate cells for (D) S6K phosphorylation at 48 hr and (E) IFN-γ production at the primary and secondary phase. Experiments shown are representative of at least three (A and B) and two (C-E) independent experiments with similar outcomes. (Data are presented as mean±SEM.)
# (§1) Stimulation of OT-1 Cells. Naive OT-I cells were stimulated with latex microspheres expressing H-2K^b/ovalbumin antigen and B7.1 according to known techniques. Naive OT-II cells were stimulated with anti-CD3-/anti-CD28-coated latex beads. In some experiments, the cell line derived from embryonic fibroblasts, namely, BOK (MEC.B7.SigOVA: expressing H-2K^b, OVAp and B7.1, were used as antigen-presenting cells to stimulate naive OT-I cells according to known techniques.
# Evaluation of Secondary Antigen-Recall Responses In Vitro. For studying secondary antigen-recall response in vitro; OT-I cells harvested at 72 hr (primary) were washed thrice with medium and recultured (1×10^5/ml) for an additional 72 hr in a 24-well plate with IL-7 (10 ng/ml) only. At 144 hr the cells were harvested, washed thrice with medium, had numbers adjusted (5×10^5), and were restimulated with Ag/B7.1 only for an additional 24 hr (secondary stimulation). At 168 hr, the cells recovered were evaluated by flow cytometry and in vitro functional assay.
# Because the presence of IL-12 during antigen stimulation augments mTOR activity and is deterministic for type I effector maturation, we analyzed whether sustained mTOR kinase activity is required for IL-12-programmed type I effector functions in OT-I cells. To do so, we stimulated naive OT-I cells with BOK±IL-12, and rapamycin and effector functions were analyzed from the primary and secondary activated OT-I pool. […] In addition, we observed a block in IL-12-induced IFN-γ production and CTL activity upon rapamycin treatment at 144 hr after primary stimulation.
# mTOR = biological target: T1, mTOR (Mus musculus, UniProt P26883+Q9JLN9); experiment: mTOR activity (mTOR, S6K and S6 phosphorylation by ICS) in stimulated OT-I cells; format: cell-based
# T1 construct: endogenous in cells; host or cells: naive OT-I CD8+ T cells (TCR transgenic Rag2-/- mice) stimulated with Ag+B7.1 +/- IL-12
# Procedure: FIG. 1. […] (A and B) OT-I cells stimulated with BOK (Ag+B7.1) (±) IL-12 were evaluated for (A) IFN-γ by ICS and (B) cytolytic activity (primary, 72 hr poststimulation; secondary, 24 hr postsecondary stimulation); ***p<0.0002. (C-E) OT-I cells stimulated with antigen (Ag) (the antigen is a peptide consisting of Ser Ile Ile followed by Asn Phe Glu which are followed by Lys and Lue (OVAp), used at 10 nM) plus B7.1 (100 μg/ml)(Ag+B7.1)(±) IL-12 (2 ng/ml) were evaluated by ICS at the indicated time points for (C) phosphorylated mTOR, (D) phosphorylated S6K, and (E) phosphorylated ribosomal S6. For mTOR inhibition, rapamycin (20 ng/ml) was added 30 min prior to addition of antigen, cytokine Data are representative of at least three independent experiments with similar outcomes. (Data are presented as mean±SEM.)
# as §1
# Although the kinase mTOR has been implicated as an integrator of various extracellular signals and a sensor for internal energy levels for determination of cell fate, the role for mTOR in integrating instructions that program naive CD8^+ T cells for type I effector differentiation is unclear. First, we tested the ability of Ag and B7.1 (Ag+B7.1) in the presence or absence of IL-12 to activate mTOR in OT-I cells at various time points after stimulation. Stimulation of naive OT-I cells with Ag+B7.1 induced mTOR phosphorylation (activation) by 2 hr, which was maximal at 12 hr and barely detectable by 48 hr (FIG. 1C). Remarkably, IL-12 addition enhanced Ag+B7.1-induced mTOR phosphorylation at 2 hr, which was maintained at 48 hr after stimulation (FIG. 1C). […] To verify that the induction of mTOR phosphorylation also led to its kinase activity, we monitored the kinetics of p70 S6K phosphorylation (Ser 371), a direct target of mTOR kinase activity. Although both Ag+B7.1 and Ag+B7.1 plus IL-12 induced similar amounts of S6K phosphorylation at 12 hr (maximal), the presence of IL-12 was able to sustain the S6K phosphorylation up to 48 hr (FIG. 10), in correlation with mTOR phosphorylation (FIG. 1C). […] The Ag+B7.1±IL-12 stimulation-induced S6K and S6 phosphorylation in OT-I cells was blocked by rapamycin (specific inhibitor of mTOR complex-1) (FIGS. 1D and 1E), thus confirming the ability of instructions to activate mTOR and its kinase activity in OT-I cells. […]
# [1] = IFN-α, Ag+B7.1-stimulated OT-I cells
mTOR activity (mTOR; [1]),"mTOR phosphorylation (mTOR; IL-12 (2 ng/ml) added to Ag+B7.1 stimulation, 2-48 hr)",Molecule,IFN-γ production (OT-I cells; [1]),"IFN-γ production and CTL activity (OT-I cells; IL-12 added to BOK-stimulated OT-I cells, 72 hr)"
unable to enhance,–,IFN-α,increases,–
–,enhances and sustains,"IL-12: interleukin-12, cytokine (signal 3) (protein, UniProt P43431 23-215; P43432 23-335, looked up) Interleukin-12 subunit alpha: RVIPVSGPARCLSQSRNLLKTTDDMVKTAREKLKHYSCTAEDIDHEDITRDQTSTLKTCLPLELHKNESCLATRETSSTTRGSCLPPQKTSLMMTLCLGSIYEDLKMYQTEFQAINAALQNHNHQQIILDKGMLVAIDELMQSLNHNGETLRQKPPVGEADPYRVKMKLCILLHAFSTRVVTINRVMGYLSSA Interleukin-12 subunit beta: MWELEKDVYVVEVDWTPDAPGETVNLTCDTPEEDDITWTSDQRHGVIGSGKTLTITVKEFLDAGQYTCHKGGETLSHSHLLLHKKENGIWSTEILKNFKNKTFLKCEAPNYSGRFTCSWLVQRNMDLKFNIKSSSSSPDSRAVTCGMASLSAEKVTLDQRDYEKYSVSCQEDVTCPTAEETLPIELALEARQQNKYENYSTSFFIRDIIKPDPPKNLQMKPLKNSQVEVSWEYPDSWSTPHSYFSLKFFVRIQRKKEKMKETEEGCNQKGAFLVEKTSTEVQCKGGNVCVQAQDRYYNSSCSKWACVPCRVRS",–,robust
